Assay results as given in patent US6239171A, “Tocotrienols and tocotrienol-like compounds and methods for their use” (Lipogenics, Inc., priority 1998, dated 2001).

Tests used:
Format in all cases: in vivo, chicken
chickens [1] = assay: Serum cholesterol, apolipoproteins, triglycerides and glucose in chickens fed supplemented diets; details: 4 weeks; for increase in the HDL-/LDL-cholesterol ratio / reduction of serum cholesterol: 100 ppm in diet; for APO A1, percentage of control / APO A1 in serum / APO B in serum / APO B, percentage of control / DL-Cholesterol/Total Cholesterol / DL-Cholesterol/Total Cholesterol, percentage of control / Glucose in serum / Glucose, percentage of control / HDL-Cholesterol in serum / HDL-Cholesterol, percentage of control / HDL-Cholesterol/LDL-Cholesterol / HDL-Cholesterol/LDL-Cholesterol, percentage of control / LDL-Cholesterol in serum / LDL-Cholesterol, percentage of control / Total Cholesterol in serum / Total Cholesterol, percentage of control / Triglycerides in serum / Triglycerides, percentage of control: control diet + 100 ppm
From the text: All assays conducted on chicken or swine serum were done following the protocols described in A. A. Qureshi et al., "Lowering Of Serum Cholesterol In Hypercholesterolemic Humans By Tocotrienols" (Palmvitee), Am. J. Clin. Nutr., 53, pp. 1021S-26S (1991). All enzymatic assays were done following the protocols described in A. A. Qureshi et al., "Effects of Cereals and Culture Filtrate of Trichoderma viride on Lipid Metabolism of Swine", Lipids, 17, pp. 924 (1982). Plasma insulin, glucagon and TNF levels were measured using radioinnumoassay kits from Ventrex Laboratories, Inc. (Portland, Me.), ICN Biomedicals, Inc. (Costa Mesa, Calif.) and Genzyme Corp. (Cambridge, Mass.), respectively. […]
Each group of 6 chickens (6-week old female while leghorn) was administered the chick mash diet described in Example 5, supplemented with one of three different amounts of waxes (sterols), 50 ppm of TRF (prepared as in Example 2) or 5% equivalent of the methanol insoluble fraction Louisiana rice bran oil. […] The birds were fasted for a period of 14 hours prior to sacrifice (at 0800 hours). […]

HMG-CoA reductase = molecular target: T1, HMG-CoA reductase (Homo sapiens, UniProt P04035); assay: Hepatic HMG-CoA reductase activity in chickens fed supplemented diets; details: control diet + 100 ppm, 4 weeks
T1 construct: hepatocytes isolated from livers of 8-week old female chickens; endogenous in cells; host or cells: primary chicken hepatocytes
T1 sequence (P04035 1-888): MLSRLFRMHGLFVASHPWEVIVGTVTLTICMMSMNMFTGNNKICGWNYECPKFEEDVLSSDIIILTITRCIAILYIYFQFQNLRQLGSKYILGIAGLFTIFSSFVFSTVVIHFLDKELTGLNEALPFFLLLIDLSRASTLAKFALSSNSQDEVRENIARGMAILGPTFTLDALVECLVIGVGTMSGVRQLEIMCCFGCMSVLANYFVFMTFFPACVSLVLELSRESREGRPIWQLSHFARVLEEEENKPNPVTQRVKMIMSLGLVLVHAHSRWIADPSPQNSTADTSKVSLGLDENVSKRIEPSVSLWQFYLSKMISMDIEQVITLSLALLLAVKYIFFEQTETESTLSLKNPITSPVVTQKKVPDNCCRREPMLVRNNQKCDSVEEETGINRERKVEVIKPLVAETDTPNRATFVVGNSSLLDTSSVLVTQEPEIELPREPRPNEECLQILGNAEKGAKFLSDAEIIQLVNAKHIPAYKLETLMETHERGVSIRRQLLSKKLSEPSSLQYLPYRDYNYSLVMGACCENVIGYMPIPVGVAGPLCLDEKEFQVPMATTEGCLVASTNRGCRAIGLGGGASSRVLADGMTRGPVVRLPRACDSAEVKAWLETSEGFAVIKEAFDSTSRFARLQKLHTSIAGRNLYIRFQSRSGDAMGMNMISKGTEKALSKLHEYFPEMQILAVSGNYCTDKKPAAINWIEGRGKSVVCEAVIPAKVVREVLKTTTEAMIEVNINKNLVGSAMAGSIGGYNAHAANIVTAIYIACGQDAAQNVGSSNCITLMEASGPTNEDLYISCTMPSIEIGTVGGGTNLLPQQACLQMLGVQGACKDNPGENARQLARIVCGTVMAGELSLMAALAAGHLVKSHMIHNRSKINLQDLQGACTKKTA
Procedure: (§1) This example measured the effects of the TRF and its components on the hepatic enzymatic activity of HMG-CoA reductase and cholesterol 7α-hydroxylase. […] The amount of feed consumed ranged from 11.19-11.60 g per chicken and the feeding period was 4 weeks. The birds were fasted for a period of 36 hours and refed for 48 hours prior to sacrifice (at 0800 hours).

[2] = tested on: cholesterol 7α-hydroxylase; assay: Hepatic cholesterol 7α-hydroxylase activity in chickens fed supplemented diets; details: control diet + 100 ppm, 4 weeks
Procedure: as §1

chickens [3] = assay: Plasma thromboxane B2 and platelet factor 4 in chickens fed supplemented diets; details: control diet + 100 ppm, 4 weeks
From the text: We next measured the effects of TRF and its components on serum levels of apolipoprotein (a)1, apolipoprotein B, triglycerides and glucose and the plasma levels of thromboxane B2 and platelet factor 4.

chickens [4] = assay: Antibody titers to sheep red blood cells in chickens; details: control diet + 100 ppm, 4 weeks, sheep red blood cells i.p.
Procedure: The model for this study was 6-week old female white leghorn chickens. Each group of 12 chickens was fed an unsupplemented chicken diet or a control diet supplemented with 50 ppm of a tocotrienol or 100 ppm of a commercially available hypercholesterolemic agent (Geraniol or Lovastatin). […] The chickens were fed over a period of 4 weeks, then the blood was drawn. The antibody response was determined by injecting the chickens i.p. with 0.5 ml of a 5% suspension of sheep red blood cells (RBCs) in PBS (v/v) which were previously washed three times. […] Relative IgG levels were determined by using 2-mercaptoethanol preincubation for 30 min. The relative IgM levels were calculated by subtracting the IgG antibody levels from total antibody levels. All antibody levels are expressed as the log base 2 of the highest titer that was needed to hemagglutinate an equal volume of 0.5% RBC suspension.

SMILES	increase in the HDL-/LDL-cholesterol ratio (chickens [1])	reduction of serum cholesterol (chickens [1])	APO A1, percentage of control (chickens [1])	APO A1 in serum (chickens [1])	APO B in serum (chickens [1])	APO B, percentage of control (chickens [1])	DL-Cholesterol/Total Cholesterol (chickens [1])	DL-Cholesterol/Total Cholesterol, percentage of control (chickens [1])	Glucose in serum (chickens [1])	Glucose, percentage of control (chickens [1])	HDL-Cholesterol in serum (chickens [1])	HDL-Cholesterol, percentage of control (chickens [1])	HDL-Cholesterol/LDL-Cholesterol (chickens [1])	HDL-Cholesterol/LDL-Cholesterol, percentage of control (chickens [1])	LDL-Cholesterol in serum (chickens [1])	LDL-Cholesterol, percentage of control (chickens [1])	Total Cholesterol in serum (chickens [1])	Total Cholesterol, percentage of control (chickens [1])	Triglycerides in serum (chickens [1])	Triglycerides, percentage of control (chickens [1])	further results
CC(C)=CCC/C(C)=C/CO [Geraniol]	≤ 31.5%	14%	98.58%	138.40 mg/100 ml	29.20 mg/100 ml	88.22%	0.65	110.10%	227.60 mg/100 ml	101.47%	82.28 ± 1.06 mg/dL	98.35%	2.00	131.50%	41.07 ± 1.13 mg/dL	96.30%	122.53 ± 1.37 mg/dL	85.82%	71.29 mg/100 ml	96.30%	HMG-CoA Reductase, percentage of control (HMG-CoA reductase): 87.65%; Cholesterol 7α-Hydroxylase, percentage of control [2]: 100.59%; Cholesterol 7α-hydroxylase [2]: 10.28 nmol/min/mg; Platelet Factor 4 (chickens [3]): 12.38 ng/mL; Platelet Factor 4, percentage of control (chickens [3]): 94.57%; Thromboxane B2 (chickens [3]): 25.46 pg/mL; Thromboxane B2, percentage of control (chickens [3]): 98.53%; IgG antibody titers in serum (chickens [4]): 1.00 ± 0.00 Log 2; IgM antibody titers in serum (chickens [4]): 5.42 Log 2; Total Ab titers in serum (chickens [4]): 5.60 ± 2.11 Log 2
CC[C@H](C)C(=O)O[C@H]1C[C@@H](C)C=C2C=C[C@H](C)[C@H](CC[C@@H]3C[C@@H](O)CC(=O)O3)[C@H]21 [Lovastatin]	≤ 31.5%	10%	99.29%	139.9 mg/100 ml	25.80 mg/100 ml	77.95%	0.63	108.00%	220.10 mg/100 ml	98.13%	81.38 ± 0.73 mg/dL	97.28%	1.84	121.40%	44.12 ± 1.26 mg/dL	86.51%	128.65 ± 1.02 mg/dL	90.11%	64.04 mg/100 ml	86.51%	Cholesterol 7α-Hydroxylase, percentage of control [2]: 110.96%; Cholesterol 7α-hydroxylase [2]: 11.34 nmol/min/mg; Platelet Factor 4 (chickens [3]): 12.24 ng/mL; Platelet Factor 4, percentage of control (chickens [3]): 93.51%; Thromboxane B2 (chickens [3]): 24.89 pg/mL; Thromboxane B2, percentage of control (chickens [3]): 96.32%; IgG antibody titers in serum (chickens [4]): 1.00 ± 0.00 Log 2; IgM antibody titers in serum (chickens [4]): 5.90 Log 2; Total Ab titers in serum (chickens [4]): 6.33 ± 1.44 Log 2
